Reference: PubChem BioAssay (NCI)
Values after ≈ are worked out from the molar mass of the structure shown.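 Briefly, cells in 96-well plates were exposed to five compound concentrations for 48 h, and endpoints were estimated by linear interpolation. Here, GI50 denotes the concentration required for 50% inhibition of growth. TGI marks complete inhibition of growth.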

Tests used:
Experiment in all cases: NCI anticancer screen, dose series, 48 h
[1] = system: A498 renal
[2] = system: A549 NSCLC
[3] = system: ACHN renal
[4] = system: HCC-2998 colon
[5] = system: MALME-3M melanoma
[6] = system: MDA-MB-231 breast
[7] = system: NCI-H460 lung
[8] = system: SK-MEL-5 melanoma
[9] = system: SN12C renal
[10] = system: UACC-257 melanoma
[11] = system: SK-MEL-2 melanoma

Structure (SMILES): COc1ccc(C(CC(=O)c2cccs2)C(=O)c2ccc3c(c2)OCO3)cc1 (stereo unspecified)
- TGI [1]: > 100 µM
- TGI [2]: > 100 µM
- TGI [3]: > 100 µM
- TGI [4]: > 100 µM
- TGI [5]: > 100 µM
- TGI [6]: > 100 µM
- TGI [7]: > 100 µM
- TGI [8]: > 100 µM
- TGI [9]: > 100 µM
- TGI [10]: > 100 µM

Structure (SMILES): CC(NC(CC12CC3CC(CC(C3)C1)C2)C(N)=O)c1ccccc1 (stereo unspecified)
- TGI [1]: 31.5 µM
- TGI [2]: > 100 µM
- TGI [3]: 57.6 µM
- TGI [4]: 40.7 µM
- TGI [5]: 34.3 µM
- TGI [6]: > 100 µM
- TGI [7]: 36.6 µM
- TGI [8]: 26.3 µM
- TGI [10]: 41.8 µM

Structure (SMILES): O=c1[nH]nc(-c2cccc([N+](=O)[O-])c2)[nH]1
- TGI [1]: > 100 µM
- TGI [2]: > 100 µM
- TGI [3]: > 100 µM
- TGI [4]: > 100 µM
- TGI [5]: > 100 µM
- TGI [7]: > 100 µM
- TGI [11]: > 100 µM
- TGI [9]: > 100 µM
- TGI [10]: > 100 µM

Structure (SMILES): CCC(C)C(NC(=O)c1cccc2c(=O)c3ccccc3[nH]c12)C(=O)O (stereo unspecified)
- TGI [1]: > 100 µM
- TGI [2]: > 100 µM
- TGI [3]: > 100 µM
- TGI [5]: > 100 µM
- TGI [6]: > 100 µM
- TGI [11]: > 100 µM
- TGI [8]: > 100 µM
- TGI [9]: > 100 µM

Structure (SMILES): O=C(NCC(O)COc1ccccc1)c1ccccc1O (stereo unspecified)
- TGI [1]: > 100 µM
- TGI [2]: > 100 µM
- TGI [3]: > 100 µM
- TGI [4]: > 100 µM
- TGI [5]: > 100 µM
- TGI [6]: > 100 µM
- TGI [11]: > 100 µM
- TGI [8]: > 100 µM
- TGI [9]: > 100 µM
- TGI [10]: > 100 µM

Structure (SMILES): CC(=O)OC1CCC2(C)C(CCC3C2CCC2(C)C(c4ccc(=O)oc4)C(OC(C)=O)CC32O)C1 (stereo unspecified)
- TGI [1]: 0.161 µM
- TGI [2]: 0.0157 µM
- TGI [4]: 0.153 µM
- TGI [5]: 0.017 µM
- TGI [7]: 0.0197 µM
- TGI [11]: 0.0911 µM
- TGI [8]: 0.0216 µM
- TGI [9]: 0.503 µM
- TGI [10]: 0.115 µM

Structure (SMILES): Cc1c2ccncc2c(C)c2c1[nH]c1ccc(O)cc12
- GI50 [1]: 0.501 mg/L (≈ 1.91 µM)
- TGI [1]: 1.9 mg/L
- TGI [2]: 0.397 mg/L
- GI50 [4]: 0.261 mg/L (≈ 0.996 µM)
- TGI [4]: 1.63 mg/L
- GI50 [7]: 0.0157 mg/L (≈ 0.0598 µM)
- TGI [7]: 0.0467 mg/L
- TGI [9]: 0.0638 mg/L
- GI50 [10]: 0.267 mg/L (≈ 1.02 µM)
- TGI [10]: 1.12 mg/L

Structure (SMILES): COC1=CC(=O)[C@@]2(C)C(C)[C@H](c3ccccc3)[C@H]2C1=O (stereo partly specified)
- TGI [1]: > 100 µM
- TGI [2]: > 100 µM
- TGI [3]: > 100 µM
- TGI [4]: > 100 µM
- TGI [5]: > 100 µM
- TGI [7]: > 100 µM
- TGI [11]: > 100 µM
- TGI [8]: > 100 µM
- TGI [10]: > 100 µM

Structure (SMILES): CCN(CC)C(=O)Cc1[nH][nH]c(=O)c1C(=O)N(CC)CC
- TGI [1]: > 100 µM
- TGI [2]: > 100 µM
- TGI [3]: > 100 µM
- TGI [4]: > 100 µM
- TGI [5]: > 100 µM
- TGI [7]: > 100 µM
- TGI [11]: > 100 µM
- TGI [9]: > 100 µM
- TGI [10]: > 100 µM

Structure (SMILES): CC/C(CC(=O)CCC(=O)Nc1ccc(C)c(C)c1)=N\NC(=O)c1cc2ccccc2cc1O
- TGI [3]: > 100 µM
- TGI [4]: 43.2 µM
- TGI [5]: 92.6 µM
- TGI [7]: > 100 µM
- TGI [11]: > 100 µM
- TGI [9]: > 100 µM
- TGI [10]: > 100 µM

Structure (SMILES): O=C1C=C2SC3C[C@@]24CC1(O)[N+]1=c2c4c(c(O)c4c2=C(C=N4)CC1)N3
- TGI [1]: 3.33 µM
- TGI [2]: 4.11 µM
- TGI [7]: 4.26 µM
- TGI [11]: 2.77 µM
- TGI [8]: 2.91 µM
- TGI [9]: 2 µM
- TGI [10]: 2.42 µM

Structure (SMILES): CCOC(=O)CN(CC)C(=O)NC12CC3CC(CC(C3)C1)C2
- TGI [1]: 413 µM
- TGI [2]: > 750 µM
- TGI [4]: 700 µM
- TGI [5]: 378 µM
- TGI [7]: 558 µM
- TGI [11]: 281 µM
- TGI [8]: 211 µM
- TGI [9]: > 750 µM
- TGI [10]: 433 µM
